Where two headings read alike, the source gives them in different places.
Columns and labels:
[1] = in words, background; cited from earlier work
[2] = in words, background; cited from earlier work; remark: listed apart in the source
[3] = system: rat bladder (K^+ -induced contractions); experiment: Inhibition of K^+ -induced rat bladder contractions; parameters: species or system rat (male Sprague Dawley); conditions: 0.5 h, KCl 80 mM, 30 min after drug, isolated rat bladder
Experimental: Female Albino Swiss mice [Crl: CD-1 (ICR) BR] with a body weight of 20-30 g and male Sprague Dawley rats [Crl: CD° BR] with a body weight of 200-300 g, from the Charles River Farm, Italy, were used for the trials. The animals were housed with free access to food and water and kept on a forced light-darkness cycle at 22°-24° C. until the day of the trials. Male rats were killed by a blow on their heads and their lower abdomens were opened along the midlines. Their urinary bladders were removed by a transverse dissection above the trigone and cut into two fragments (20-30 mm long, 1-2 mm wide). Each fragment was suspended in an isolated organ bath containing 10 ml of a normal Tyrode solution (composition in mM: NaCl 137, KCl 2.68, MgCl2 1.11, CaCl2 1.8, NaH2 PO4 0.41, NaHCO3 11.9, glucose 5.55) and connected, under a steady 1 g load, to an isometric transducer (DY-1, Basile). The solution was gassed with a mixture of 95% O2 and 5% CO2 and heated at 37° C. After a 60 minute equilibration the tension responses to a single KCl dose (Bath concentration=80 mM) inducing phasic and tonic contractions were measured under isometric conditions at 30 minute intervals. After recording one or more reproducible responses, a solution of the test drug was added to the bath (final concentration from 10^-4 to 10^-9 M) and 30 minutes later a new contraction was induced. The experimental groups were made up of at least 2 preparations from different animals for each drug concentration tested. The IC50 values of the inhibition of the agonist-induced contractions were evaluated by linear regression analysis.

Compound: Cc1c(-c2ccccc2)oc2c(C(=O)OCCN3CCCCC3)cccc2c1=O [Flavoxate, 8-(2-(N-piperidino)ethoxycarbonyl)-3-methyl-4-oxo-2-phenyl-4H-1-benzopyran, reference compound]
- anticholinergic effects [1]: practical absence of anticholinergic effects
- stability in physiological fluids [2]: low stability in physiological fluids
- IC50 ([3]; phasic contraction, read-out: IC50, inhibition of K^+ -induced rat bladder contractions, Phasic): 13 µM
- IC50 ([3]; tonic contraction, read-out: IC50, inhibition of K^+ -induced rat bladder contractions, Tonic): 13 µM

Reference: patent US5453518A, “Flavone derivatives” (Recordati S.A., Chemical and Pharmaceutical Company, priority 1992, dated 1995)
